The text below walks through data of patent US20080200334A1, “Method For Enhancing The Effectiveness Of Ethaboxam” (BASF Aktiengesellschaft, priority 2004, published 2008).

Like-named read-outs stand apart in the source and are kept apart here.

The subject of one test is Pyricularia oryzae. The test is classed as cell-based.
The subject of test [1] is Plasmopara viticola. The experiment in a line: Use Example 1: peronospora of grapevines, greenhouse, 7 days of protective application. The test is classed as in vivo. The note with it: grapevine leaves sprayed 7 days before inoculation. Here is the method: The active compounds were prepared jointly or separately as a stock solution with 25 mg of active compound which was made up to 10 ml using a mixture of acetone and/or DMSO and the emulsifier Uniperol® EL (wetting agent having emulsifying and dispersing action based on ethoxylated alkylphenols) in a volume ratio of solvent/emulsifier of 99 to 1. The mixture was then made up with water to 100 ml. This stock solution was diluted with the solvent/emulsifier/water mixture described to the concentration of active compounds stated below.
The active compounds pyraclostrobin, famoxadone, fluazinam and zoxamide were used as commercially available formulations.
The visually determined percentages of infected leaf areas were converted into efficacies in % of the untreated control:
The efficacy (E) is calculated as follows using Abbot's formula:
An efficacy of 0 means that the infection level of the treated plants corresponds to that of the untreated control plants; an efficacy of 100 means that the treated plants were not infected.
The expected efficacies of mixtures of active compounds were determined using Colby's formula (Colby, S. R. “Calculating synergistic and antagonistic responses of herbicide combinations”, Weeds, 15, 20-22, 1967) and compared with the observed efficacies.
E=x+y−x·y/100 • E expected efficacy, expressed in % of the untreated control, when using the mixture of the active compounds A and B at the concentrations a and b • x efficacy, expressed in % of the untreated control, when using the active compound A at the concentration a • y efficacy, expressed in % of the untreated control, when using the active compound B at the concentration b
Effectiveness Against Peronospora of Grapevines Caused by Plasmopara viticola at 7 days of Protective Application
Leaves of potted vines were sprayed to runoff point with an aqueous suspension having the concentration of active compound given below. To be able to assess the persistency of the substances, the plants were, after the spray coating had dried on, placed in a greenhouse for 7 days. Only then were the leaves inoculated with an aqueous zoospore suspension of Plasmopara viticola. The grapevines were then initially placed in a water-vapor-saturated chamber at 24° C. for 48 hours and then in a greenhouse at temperatures between 20 and 30° C. for 5 days. After this period of time the plants were, to promote sporangiophore eruption, again placed in a humid chamber for 16 hours. The extent of the development of the infection on the undersides of the leaves was then determined visually.

The test system of another test is Botrytis cinerea. The test is described as follows: Use Example 4: gray mold, microtiter test. The test is classed as cell-based. The note with it: day 7 after inoculation, 405 nm.
The subject of another test is Phytophthora infestans. The test is classed as in vivo. The settings on record: tomato leaves sprayed 3 days before inoculation, rated after 6 days.
A further test has as its system Septoria tritici. The experiment in a line: Use Example 6: Septoria speckled leaf blotch, microtiter test. The test is classed as cell-based. The note with it: day 7 after inoculation, 405 nm.
The subject of test [2] is Plasmopara viticola. The test is classed as in vivo.

On to `CC1(c2ccc(Oc3ccccc3)cc2)OC(=O)N(Nc2ccccc2)C1=O` (racemic) [famoxadone II-11, (RS)-3-anilino-5-methyl-5-(4-phenoxyphenyl)-1,3-oxazolidine-2,4-dione], for which, in the test on Pyricularia oryzae (0.5 ppm), the “Observed effect (%)” value is 64%.
On to `CCNC(=O)NC(=O)/C(C#N)=N/OC` [cymoxanil II-3, cymoxanil], for which the “Observed effect (%)” value in the test on Plasmopara viticola [1] (4 ppm) is reported as 0%.
As for `COc1ccc(C(=CC(=O)N2CCOCC2)c2ccc(Cl)cc2)cc1OC` [dimethomorph II-2, 3-(4-chlorophenyl)-3-(3,4-dimethoxyphenyl)-1-morpholin-4-ylpropenone], the “Observed effect (%)” value with Botrytis cinerea (63 ppm) was found to be 9%; in the test on Plasmopara viticola [1] (4 ppm) it was 0%; with Phytophthora infestans (4 ppm) it was 0%; in the test with Phytophthora infestans (16 ppm) it was 22%; in the test with Pyricularia oryzae (4 ppm) it was 6%.
Turning to `N#Cc1sc2c(=O)c3ccccc3c(=O)c=2sc1C#N` [dithianon II-15, 5,10-dioxo-5,10-dihydronaphtho[2,3-b][1,4]dithiin-2,3-dicarbonitrile], the “Observed effect (%)” value with Septoria tritici (0.125 ppm) worked out at 35%.
For the compound `CCNc1nc(CC)c(C(=O)NC(C#N)c2cccs2)s1` (centres unmarked) [ethaboxam I, N-(cyano-2-thienylmethyl)-4-ethyl-2-(ethylamino)-5-thiazolecarboxamide], the “Observed effect (%)” value is on record as 61% in the test on Plasmopara viticola [2] (1 ppm); 0% in the test with Botrytis cinerea (1 ppm); 0% with Botrytis cinerea (2 ppm); 0% in the test with Botrytis cinerea (4 ppm); 0% in the test with Botrytis cinerea (32 ppm); 11% in the test with Botrytis cinerea (63 ppm). Besides, the “Observed effect (%)” value is 0% with Plasmopara viticola [1] (1 ppm); 22% with Plasmopara viticola [1] (4 ppm); 44% in the test with Plasmopara viticola [1] (16 ppm); 33% with Phytophthora infestans (16 ppm); 0% with Pyricularia oryzae (0.125 ppm); 0% in the test on Pyricularia oryzae (0.25 ppm). Moreover, the “Observed effect (%)” value in the test with Pyricularia oryzae (8 ppm) is given as 18%; in the test on Pyricularia oryzae (16 ppm), 41%; in the test with Pyricularia oryzae (63 ppm), 56%; in the test on Septoria tritici (0.125 ppm), 0%; with Septoria tritici (4 ppm) it was 0%; in the test on Septoria tritici (16 ppm), 0%.
In the case of `O=[N+]([O-])c1cc(C(F)(F)F)c(Cl)c([N+](=O)[O-])c1Nc1ncc(C(F)(F)F)cc1Cl` [fluazinam II-4, 3-chloro-N-[3-chloro-2,6-dinitro-4-(trifluoromethyl)phenyl]-5-(trifluoromethyl)-2-pyridinamine], in the test on Plasmopara viticola [1] (63 ppm), the “Observed effect (%)” value is 22%.
In the case of `COc1ccc(C(=CC(=O)N2CCOCC2)c2ccc(F)cc2)cc1OC` [flumorph II-8, 3-(4-fluorophenyl)-3-(3,4-dimethoxyphenyl)-1-morpholin-4-ylpropenone], the “Observed effect (%)” value with Botrytis cinerea (63 ppm) turned out to be 16%; in the test on Pyricularia oryzae (16 ppm), 11%.
As for `O=C1c2ccccc2C(=O)N1SC(Cl)(Cl)Cl` [folpet II-10, folpet], the entries for the “Observed effect (%)” value in the test on Botrytis cinerea (1 ppm), in the test with Pyricularia oryzae (1 ppm) and in the test with Septoria tritici (4 ppm) were 38%, 20% and 54%, respectively.
In the case of `COC(=O)N(OC)c1ccccc1COc1ccn(-c2ccc(Cl)cc2)n1` [pyraclostrobin II-6, methyl N-{2-[1-(4-chlorophenyl)-1H-pyrazol-3-yloxymethyl]phenyl}(N-methoxy)carbamate], the “Observed effect (%)” value in the test on Botrytis cinerea (0.5 ppm) was determined as 22%.
For “ethyl phosphonate aluminum [fosethyl-Al II-12]”, the “Observed effect (%)” value with Pyricularia oryzae is reported as 8%.
On to “manganese ethylenebis(dithiocarbamate) [maneb II-5]”, for which, in the test with Plasmopara viticola [2] (in vivo), the “Observed effect (%)” value came out at 0%.
With “manganese ethylenebis(dithiocarbamate) zinc complex [mancozeb II-9]”, the “Observed effect (%)” value is listed as 30% in the test on Botrytis cinerea (4 ppm) and 29% in the test on Septoria tritici (1 ppm).
Consider “zinc ammoniate ethylenebis(dithiocarbamate) [metiram II-14]”, for which the “Observed effect (%)” value in the test on Septoria tritici (4 ppm) is 19%.
